Reference: patent publication US20150110723A1, “QUINAZOLINE DERIVATIVES, COMPOSITIONS, AND USES RELATED THERETO” (EMORY UNIVERSITY, priority 2012, published 2015)

Assays:
human Myeloperoxidase = biological target: T1, human Myeloperoxidase (Homo sapiens, UniProt P05164); test: Amplex Red assay of purified MPO activity; format: biochemical; conditions: isolated purified human MPO, hydrogen peroxide as substrate
T1 sequence (P05164 49-745): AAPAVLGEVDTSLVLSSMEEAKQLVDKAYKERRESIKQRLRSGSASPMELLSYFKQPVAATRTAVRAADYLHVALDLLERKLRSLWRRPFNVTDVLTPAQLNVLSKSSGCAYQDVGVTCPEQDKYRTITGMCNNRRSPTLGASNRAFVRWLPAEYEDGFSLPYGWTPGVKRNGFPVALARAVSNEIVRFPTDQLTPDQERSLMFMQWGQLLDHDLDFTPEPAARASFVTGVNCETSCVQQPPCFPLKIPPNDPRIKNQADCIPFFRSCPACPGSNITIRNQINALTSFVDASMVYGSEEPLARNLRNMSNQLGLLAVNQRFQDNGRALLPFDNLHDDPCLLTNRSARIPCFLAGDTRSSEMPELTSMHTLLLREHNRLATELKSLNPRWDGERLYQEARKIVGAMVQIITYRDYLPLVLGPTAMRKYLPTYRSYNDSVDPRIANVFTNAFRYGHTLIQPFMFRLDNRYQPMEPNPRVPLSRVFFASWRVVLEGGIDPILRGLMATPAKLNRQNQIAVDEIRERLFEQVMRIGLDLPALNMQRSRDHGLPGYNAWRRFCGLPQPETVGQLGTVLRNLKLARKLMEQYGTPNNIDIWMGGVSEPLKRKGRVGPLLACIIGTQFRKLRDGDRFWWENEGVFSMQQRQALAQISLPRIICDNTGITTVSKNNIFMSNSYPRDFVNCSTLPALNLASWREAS
Method: In Table 2, isolated, purified human Myeloperoxidase was used in an enzyme assay system including hydrogen peroxide as substrate and Amplex Red to measure MPO enzymatic activity.
Purified human MPO is mixed with the detector molecule Amplex Red (10-acetyl-3,7-dihydroxyphenoxazine) which increases fluorescence at 590 nm) Hydrogen peroxide is added to initiate the reaction and fluorescence is monitored.

Nox2 = biological target: T2, Nox2 (Homo sapiens, UniProt P04839); test: Cytochrome c reduction assay for superoxide in activated human neutrophils; format: cell-based; conditions: for IC50: isolated human neutrophils, PMA-activated, absorbance at 550 nm
T2 construct: superoxide originates from the endogenous Nox2 enzyme system; endogenous in cells; host or cells: isolated human neutrophils, PMA-stimulated
T2 sequence (P04839 2-570 limits assumed): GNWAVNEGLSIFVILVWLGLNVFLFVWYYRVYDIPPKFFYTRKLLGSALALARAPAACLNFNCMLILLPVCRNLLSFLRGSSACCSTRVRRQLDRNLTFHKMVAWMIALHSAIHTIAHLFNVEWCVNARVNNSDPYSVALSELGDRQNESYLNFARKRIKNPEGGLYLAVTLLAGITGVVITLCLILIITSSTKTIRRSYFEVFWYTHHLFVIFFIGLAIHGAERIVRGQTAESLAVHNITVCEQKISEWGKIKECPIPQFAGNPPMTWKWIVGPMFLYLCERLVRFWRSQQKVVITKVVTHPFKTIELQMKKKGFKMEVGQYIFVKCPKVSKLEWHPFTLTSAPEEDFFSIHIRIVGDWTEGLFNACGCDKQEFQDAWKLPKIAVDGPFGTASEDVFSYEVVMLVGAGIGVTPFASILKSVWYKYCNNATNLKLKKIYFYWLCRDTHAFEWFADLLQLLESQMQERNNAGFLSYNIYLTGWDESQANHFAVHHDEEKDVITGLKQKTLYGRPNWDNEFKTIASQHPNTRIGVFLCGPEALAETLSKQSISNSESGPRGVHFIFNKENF
T2 sequence (P13498 2-195 partner limits assumed): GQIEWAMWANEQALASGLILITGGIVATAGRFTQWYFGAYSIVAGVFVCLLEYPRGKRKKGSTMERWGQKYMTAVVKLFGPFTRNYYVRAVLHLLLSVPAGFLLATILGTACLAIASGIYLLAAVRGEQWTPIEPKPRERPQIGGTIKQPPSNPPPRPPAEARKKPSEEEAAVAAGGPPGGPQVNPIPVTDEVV
Method: Isolated human neutrophils represent a system in which superoxide originates from the endogenous Nox2 enzyme system, and can be measured using cytochrome c reduction that is inhibitable by added superoxide dismutase. In Table 3, Nox2 activity in isolated human neutrophils was assayed using cytochrome c reduction.
Isolated human neutrophils, which contain large amounts of Nox2 enzyme, are mixed with superoxide detector cytochrome c. Phorbol 12-myristate 13-acetate (PMA) is added at 1 μM final to stimulate Nox2 activation resulting superoxide production; absorbance at 550 nm is monitored.

Nox2/MPO System = test: L-012 cell-free assay of Nox2/MPO activity (human neutrophil plasma membranes plus recombinant p47phox, p67phox, Rac1Q61L); format: biochemical; conditions: for Inhibition of ROS from neutrophil membranes assayed by L-012 (figure legend): cell-free L-012 assay, FIG. 1 / FIG. 2; for IC50: read-out: L-012 Assay IC50 μM ± SEM
Method: In Table 1 a cell-free semi-recombinant system (consisting of isolated plasma membranes from human neutrophils as a source for Nox2-p22phox and MPO), supplemented with recombinant p47phox, p67phox and Rac1Q61L (activated Rac), expressed in and isolated from of E. coli. L-012 luminescence was used as a readout to monitor enzymatic activity that monitors the combined enzymatic activity of both the Nox2 system and MPO.
Plasma membranes were prepared from human neutrophils. […]. Membranes were stored at −80 C until use. Membranes are mixed with recombinant, purified cytosolic regulatory proteins (p67Np47 chimera, and constitutively active Rac1 mutant Q61) and FAD, along with varying concentrations of compound, and L-012, which luminesces when it reacts with ROS derived either from Nox2 or from MPO. The reaction is initiated by addition of NADPH and SDS (an artificial activatyor for Nox2). See Curnutte et al., (1987) J. Biol. Chem. 262: 6450-6452.

xanthine oxidase = test: Xanthine/xanthine oxidase-L-012 control (interference) assay; format: biochemical; conditions: L-012 luminescence, FIG. 1 / FIG. 2
Method: Two assays are used to rule out interference. In one assay, xanthine oxidase replaces the Nox2 and MPO enzymatic system as the source of ROS. See Ritsick et al. (2007) Free Radic Biol Med 43: 31-8. Xanthine was added to start the reaction and L012 luminescence was recorded. In a control for the luminol assay, exogenous H2O2 is supplied in place of the Nox expressing H2O2-generating cells or enzyme and luminol luminescence is recorded.

[1] = cell-free semi-recombinant system, L-012 luminescence, does not distinguish Nox2 from MPO inhibition

## COc1cc2[nH]c(=S)n(CCCCN(C)C)c(=O)c2cc1OC [AS2-30]
Human Myeloperoxidase
  IC50: 4 µM

## CN(C)CCCn1c(SCC(=O)Nc2nc(-c3ccc(Br)cc3)cs2)nc2ccccc2c1=O [AS148A]
Nox2
  IC50: 1 µM

## CCN(CC)CCCn1c(SCC(=O)Nc2nc(-c3ccc(Br)cc3)cs2)nc2ccccc2c1=O [AS158A]
Nox2
  IC50: 0.6 µM

## CN(C)CCCCn1c(SCC(=O)Nc2nc(-c3ccc(Br)cc3)cs2)nc2ccccc2c1=O [AS158B]
Nox2/MPO System
  Inhibition of ROS from neutrophil membranes assayed by L-012 (figure legend): inhibits ROS generation
Nox2
  IC50: 3 µM
Xanthine oxidase
  Effect on control assay with ROS generated from xanthine plus xanthine oxidase: does not affect control assay

## CN(C)CCCCn1c(SCC(=O)Nc2nc(-c3cccc(Br)c3)cs2)nc2ccccc2c1=O [AS195]
Nox2
  IC50: 1.5 µM

## COC(=O)c1ccc2c(=O)n(N)c(=S)[nH]c2c1 [AS261b]
Human Myeloperoxidase
  IC50: 1.5 µM

## CN(C)CCCn1c(=S)[nH]c2ccccc2c1=O [Compound 2a]
Nox2/MPO System; [1]
  IC50: 3.3 ± 0.3 µM

## CN(C)CCCn1c(=O)[nH]c2ccccc2c1=O [Compound 2b]
Nox2/MPO System; [1]
  L-012 Assay IC50 μM ± SEM: N•I

## O=c1c2ccccc2[nH]c(=S)n1CCc1ccccn1 [Compound 2zzz]
Nox2/MPO System; [1]
  IC50: 4 ± 1 µM

## CCn1c(=S)[nH]c2ccc(F)cc2c1=O [Compound 3k]
Nox2/MPO System; [1]
  IC50: 0.7 ± 0.1 µM

## CC(C)n1c(=S)[nH]c2cc(F)c(F)cc2c1=O [Compound 3l]
Nox2/MPO System; [1]
  IC50: 0.7 ± 0.1 µM

## COc1cc2[nH]c(=S)n(C(C)C)c(=O)c2cc1OC [Compound 3m]
Nox2/MPO System; [1]
  IC50: 0.7 ± 0.1 µM

## COCCCn1c(=S)[nH]c2ccccc2c1=O [LY1-21]
Human Myeloperoxidase
  IC50: 3 µM

## O=c1c2ccccc2[nH]c(=S)n1CCc1cnc[nH]1 [LY1-27]
Human Myeloperoxidase
  IC50: 1 µM

## O=c1c2cc(F)ccc2[nH]c(=S)n1CCc1cnc[nH]1 [LY1-73]
Human Myeloperoxidase
  IC50: 1.5 µM

## CN1CCN(CCCn2c(=S)[nH]c3ccc(F)cc3c2=O)CC1 [LY1-107N]
Human Myeloperoxidase
  IC50: 1 µM

## CN(C)CCCn1c(=S)[nH]c2ccccc2c1=O [TG6-17-2]
Human Myeloperoxidase
  IC50: 1.5 µM

## CCN(CC)CCn1c(=S)[nH]c2ccccc2c1=O [TG6-27-2]
Human Myeloperoxidase
  IC50: 2 µM

## CN(C)CCCn1c(=S)[nH]c2ccc(Cl)cc2c1=O [TG6-44]
Nox2/MPO System
  Inhibition of ROS from neutrophil membranes assayed by L-012 (figure legend): Inhibits ROS activity
Nox2/MPO System; [1]
  IC50: 1.2 ± 0.1 µM
Human Myeloperoxidase
  IC50: 1 µM
Xanthine oxidase
  Effect on control assay with ROS generated from xanthine plus xanthine oxidase: does not affect control assay

## O=c1c2ccccc2[nH]c(=S)n1CCN1CCCC1 [TG6-52-2]
Human Myeloperoxidase
  IC50: 1.5 µM

## CC(Sc1nc2ccccc2c(=O)n1CCCN(C)C)C(=O)Nc1nc(-c2cccc(Br)c2)cs1 (centres unmarked) [TG6-73]
Nox2; cytochrome c reduction, absorbance increase at 550 nm, FIG. 3
  Inhibition of superoxide production from Nox2 in intact human neutrophils (figure legend): inhibits superoxide production
Nox2
  IC50: 2 µM

## CN(C)CCCn1c(=S)[nH]c2ccc(F)cc2c1=O [TG6-248]
Human Myeloperoxidase
  IC50: 2 µM

## CN(C)CCCn1c(=S)[nH]c2cc(F)c(F)cc2c1=O [TG6-250]
Human Myeloperoxidase
  IC50: 1 µM
